These results are taken from US12098144B2, “Piperazine indazole glucocorticoid receptor antagonists” (Corcept Therapeutics Incorporated, priority 2021, dated 2024).

The target of this assay is T1, glucocorticoid receptor (Homo sapiens, UniProt P04150).
T1 construct: endogenous in cells; ATCC cat
T1 sequence (P04150 1-777): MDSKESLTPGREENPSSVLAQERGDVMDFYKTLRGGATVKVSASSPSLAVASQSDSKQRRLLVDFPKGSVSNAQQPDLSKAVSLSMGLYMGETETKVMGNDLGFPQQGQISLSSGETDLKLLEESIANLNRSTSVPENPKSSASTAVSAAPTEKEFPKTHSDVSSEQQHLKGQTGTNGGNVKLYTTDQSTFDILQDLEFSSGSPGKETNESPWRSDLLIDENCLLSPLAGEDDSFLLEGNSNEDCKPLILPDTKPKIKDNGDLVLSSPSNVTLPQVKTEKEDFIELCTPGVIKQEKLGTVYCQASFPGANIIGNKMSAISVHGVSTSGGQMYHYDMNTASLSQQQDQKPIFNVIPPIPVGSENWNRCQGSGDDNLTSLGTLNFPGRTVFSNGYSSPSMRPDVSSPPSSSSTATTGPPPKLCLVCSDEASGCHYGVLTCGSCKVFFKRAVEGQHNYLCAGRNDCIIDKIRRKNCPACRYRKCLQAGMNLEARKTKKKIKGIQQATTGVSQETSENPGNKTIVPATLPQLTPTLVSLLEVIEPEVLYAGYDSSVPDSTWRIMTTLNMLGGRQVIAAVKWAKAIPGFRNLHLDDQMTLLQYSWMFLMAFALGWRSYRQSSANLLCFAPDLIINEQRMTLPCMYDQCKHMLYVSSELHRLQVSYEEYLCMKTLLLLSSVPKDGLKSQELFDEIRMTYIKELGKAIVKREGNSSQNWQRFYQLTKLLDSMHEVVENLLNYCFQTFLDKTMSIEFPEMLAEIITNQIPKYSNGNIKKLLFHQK
Briefly: Hep G2 TAT Ki: inhibition of dexamethasone-induced TAT in HepG2 cells (96 well). The conditions noted are these: challenge of 100 nM dexamethasone, IC50 converted to Ki by Cheng and Prusoff equation. It counts as cell-based. The procedure:
Glucocorticoid mediated activation of TAT occurs by transactivation of glucocorticoid response elements in the TAT promoter by glucocorticoid receptor-agonist complex.
HepG2 cells were cultured using MEME media supplemented with 10% (v/v) foetal bovine serum; 2 mM L-glutamine and 1% (v/v) NEAA at 37° C., 5%/95% (v/v) CO2/air.
Compounds were serially half log diluted in 100% (v/v) dimethylsulphoxide from a 10 mM stock.
HepG2 cells were then lysed with 30 μl of cell lysis buffer containing a protease inhibitor cocktail for 15 minutes at 4° C. […] After 2 hours incubation at 37° C. the reaction was terminated by the addition of 15 μl of 10M aqueous potassium hydroxide solution, and the plates incubated for a further 30 minutes at 37° C.
[compound] and fitting the data to a 4 parameter logistic equation.
For orientation: Ki means a dissociation constant, usually derived from enzyme kinetics or from competition with a known ligand. Take `Cc1cc2c(cnn2-c2ccc(F)cc2)cc1C1CN(S(=O)(=O)c2conc2C)CCN1CC(C)C` (single isomer, unassigned) [Example 56, 4-((3-(1-(4-fluorophenyl)-6-methyl-1H-indazol-5-yl)-4-isobutylpiperazin-1-yl)sulfonyl)-3-methylisoxazole]: the Ki was determined as 65 nM. The figure for `Cc1cc2c(cnn2-c2ccc(F)cc2)cc1C1CN(S(=O)(=O)c2cnn(C)c2C)CCN1CC(C)C` (single isomer, unassigned) [Example 57, 5-(4-((1,5-dimethyl-1H-pyrazol-4-yl)sulfonyl)-1-isobutylpiperazin-2-yl)-1-(4-fluorophenyl)-6-methyl-1H-indazole] is 19 nM; for `Cc1cc2c(cnn2-c2ccc(F)cc2)cc1C1CN(S(=O)(=O)c2cncs2)CCN1CC(C)C` (single isomer, unassigned) [Example 58, 5-((3-(1-(4-fluorophenyl)-6-methyl-1H-indazol-5-yl)-4-isobutylpiperazin-1-yl)sulfonyl)thiazole] it is 15 nM.

The compound `Cc1cc2c(cnn2-c2ccc(F)cc2)cc1C1CN(S(=O)(=O)c2cnn(C(F)F)c2)CCN1CC(C)C` (single isomer, unassigned) [Example 59, 5-(4-((1-(difluoromethyl)-1H-pyrazol-4-yl)sulfonyl)-1-isobutylpiperazin-2-yl)-1-(4-fluorophenyl)-6-methyl-1H-indazole] came in with a Ki of 22 nM. Then `COCCS(=O)(=O)N1CCN(CC(C)C)C(c2cc3cnn(-c4ccc(F)cc4)c3cc2C)C1` (single isomer, unassigned) [Example 60, 1-(4-fluorophenyl)-5-(1-isobutyl-4-((2-methoxyethyl)sulfonyl)piperazin-2-yl)-6-methyl-1H-indazole], with 28 nM; and `Cc1cc2c(cnn2-c2ccc(F)cc2)cc1C1CN(S(=O)(=O)CC2CCOCC2)CCN1CC(C)C` (single isomer, unassigned) [Example 61, 1-(4-fluorophenyl)-5-(1-isobutyl-4-(((tetrahydro-2H-pyran-4-yl)methyl)sulfonyl)piperazin-2-yl)-6-methyl-1H-indazole], with 64 nM; and `Cc1cc2c(cnn2-c2ccc(F)cc2)cc1C1CN(S(=O)(=O)N(C)C2CC2)CCN1CC(C)C` (single isomer, unassigned) [Example 62, N-cyclopropyl-3-(1-(4-fluorophenyl)-6-methyl-1H-indazol-5-yl)-4-isobutyl-N-methylpiperazine-1-sulfonamide], with 44 nM. Compound `CCn1cc(S(=O)(=O)N2CCN(CC(C)C)C(c3cc4cnn(-c5ccc(F)cc5)c4cc3C)C2)nn1` (single isomer, unassigned) [Example 63, 5-(4-((1-ethyl-1H-1,2,3-triazol-4-yl)sulfonyl)-1-isobutylpiperazin-2-yl)-1-(4-fluorophenyl)-6-methyl-1H-indazole] displayed a Ki of 20 nM. `Cc1cc2c(cnn2-c2ccc(F)cc2)cc1C1CN(S(=O)(=O)c2cnn(C)c2)CCN1CC(C)C` (single isomer, unassigned) [Example 64, 1-(4-fluorophenyl)-5-(1-isobutyl-4-((1-methyl-1H-pyrazol-4-yl)sulfonyl)piperazin-2-yl)-6-methyl-1H-indazole] came in with a Ki of 50 nM.

Compound `Cc1cc2c(cnn2-c2ccc(F)cc2)cc1C1CN(S(=O)(=O)c2cnn(C)n2)CCN1Cc1ccon1` (single isomer, unassigned) [Example 72, 3-((2-(1-(4-fluorophenyl)-6-methyl-1H-indazol-5-yl)-4-((2-methyl-2H-1,2,3-triazol-4-yl)sulfonyl)piperazin-1-yl)methyl)isoxazole] gave a Ki of 330 nM. As to `Cc1cc2c(cnn2-c2ccc(F)cc2)cc1C1CN(S(=O)(=O)c2cnn(C)n2)CCN1CC1(F)CC1` (single isomer, unassigned) [Example 73, 5-(1-((1-fluorocyclopropyl)methyl)-4-((2-methyl-2H-1,2,3-triazol-4-yl)sulfonyl)piperazin-2-yl)-1-(4-fluorophenyl)-6-methyl-1H-indazole], affinity was put at a Ki of 170 nM. Compound `Cc1cc2c(cnn2-c2ccc(F)cc2)cc1C1CN(S(=O)(=O)c2cnn(C)n2)CCN1CC1CCC1` (single isomer, unassigned) [Example 74, 5-(1-(cyclobutylmethyl)-4-((2-methyl-2H-1,2,3-triazol-4-yl)sulfonyl)piperazin-2-yl)-1-(4-fluorophenyl)-6-methyl-1H-indazole] registered a Ki of 160 nM. `Cc1cc2c(cnn2-c2ccc(F)cc2)cc1C1CN(S(=O)(=O)c2cnn(C)n2)CCN1CC1CC(F)(F)C1` (single isomer, unassigned) [Example 75, 5-(1-((3,3-difluorocyclobutyl)methyl)-4-((2-methyl-2H-1,2,3-triazol-4-yl)sulfonyl)piperazin-2-yl)-1-(4-fluorophenyl)-6-methyl-1H-indazole] gave a Ki of 140 nM. The figure for `Cc1cc2c(cnn2-c2ccc(F)cc2)cc1C1CN(S(=O)(=O)c2cnn(C)n2)CCN1CC1CC(F)(F)C1` (single isomer, unassigned) [Example 76, 5-(1-((3,3-difluorocyclobutyl)methyl)-4-((2-methyl-2H-1,2,3-triazol-4-yl)sulfonyl)piperazin-2-yl)-1-(4-fluorophenyl)-6-methyl-1H-indazole] is 22 nM; for `Cc1cc2c(cnn2-c2ccc(F)cc2)cc1C1CN(S(=O)(=O)c2cnn(C)n2)CCN1CC1CCC1` (single isomer, unassigned) [Example 77, 5-(1-(cyclobutylmethyl)-4-((2-methyl-2H-1,2,3-triazol-4-yl)sulfonyl)piperazin-2-yl)-1-(4-fluorophenyl)-6-methyl-1H-indazole] it is 13 nM; for `Cc1cc2c(cnn2-c2ccc(F)cc2)cc1C1CN(S(=O)(=O)c2cnn(C)n2)CCN1CC1CCCC1` (single isomer, unassigned) [Example 78, 5-(1-(cyclopentylmethyl)-4-((2-methyl-2H-1,2,3-triazol-4-yl)sulfonyl)piperazin-2-yl)-1-(4-fluorophenyl)-6-methyl-1H-indazole] it is 13 nM. As to `Cc1cc2c(cnn2-c2ccc(F)cc2)cc1C1CN(S(=O)(=O)c2cnn(C)n2)CCN1CC1(F)CC1` (single isomer, unassigned) [Example 79, 5-(1-((1-fluorocyclopropyl)methyl)-4-((2-methyl-2H-1,2,3-triazol-4-yl)sulfonyl)piperazin-2-yl)-1-(4-fluorophenyl)-6-methyl-1H-indazole], the inhibition constant Ki turned out to be 29 nM. Then `Cc1cc2c(cnn2-c2ccc(F)cc2)cc1C1CN(S(=O)(=O)c2cnn(C)n2)CCN1Cc1ccn(C)n1` (single isomer, unassigned) [Example 80, 1-(4-fluorophenyl)-6-methyl-5-(1-((1-methyl-1H-pyrazol-3-yl)methyl)-4-((2-methyl-2H-1,2,3-triazol-4-yl)sulfonyl)piperazin-2-yl)-1H-indazole], with 150 nM.

`Cc1cc2c(cnn2-c2ccc(F)cc2)cc1C1CN(S(=O)(=O)c2cnn(C)n2)CCN1Cc1ccon1` (single isomer, unassigned) [Example 81, 3-((2-(1-(4-fluorophenyl)-6-methyl-1H-indazol-5-yl)-4-((2-methyl-2H-1,2,3-triazol-4-yl)sulfonyl)piperazin-1-yl)methyl)isoxazole]: the affinity corresponds to a Ki of 73 nM. For `Cc1cc2c(cnn2-c2ccc(F)cc2)cc1C1CN(S(=O)(=O)c2cnn(C)n2)CCN1CC(C)(C)CO` (single isomer, unassigned) [Example 82, 3-(2-(1-(4-fluorophenyl)-6-methyl-1H-indazol-5-yl)-4-((2-methyl-2H-1,2,3-triazol-4-yl)sulfonyl)piperazin-1-yl)-2,2-dimethylpropan-1-ol], the inhibitory constant (Ki) is 43 nM. In turn, `Cc1cc2c(cnn2-c2ccc(F)cc2)cc1C1CN(S(=O)(=O)c2cnn(C)n2)CCN1CC1(C(F)(F)F)CC1` (single isomer, unassigned) [Example 83, 1-(4-fluorophenyl)-6-methyl-5-(4-((2-methyl-2H-1,2,3-triazol-4-yl)sulfonyl)-1-((1-(trifluoromethyl)cyclopropyl)methyl)piperazin-2-yl)-1H-indazole] gave a Ki of 33 nM.

On to `Cc1cc2c(cnn2-c2ccc(F)cc2)cc1C1CN(S(=O)(=O)c2cnn(C)n2)CCN1CC1CCOC1` (single isomer, unassigned) [Example 85, 1-(4-fluorophenyl)-6-methyl-5-(4-((2-methyl-2H-1,2,3-triazol-4-yl)sulfonyl)-1-((tetrahydrofuran-3-yl)methyl)piperazin-2-yl)-1H-indazole], for which the Ki was 29 nM.
